“And” between values parts separate entries of the source, which are not always exact repeats. Equal values may be shown once.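 96-well plates; 48 h exposure; 5 concentrations. Endpoints by linear interpolation between flanking doses. Not reached: highest tested concentration assigned. The concentration for 50% growth inhibition is given as GI50. The concentration for full growth arrest is given as TGI.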
Tests used:
Test in all cases: inhibition of tumour cell growth, NCI panel, 48 h
[1] = test system: HCT-116 colon
[2] = test system: LOX IMVI melanoma
[3] = test system: MCF7 breast
[4] = test system: MDA-MB-435
[5] = test system: NCI-H522 lung
[6] = test system: NCI/ADR-RES ovarian
[7] = test system: RPMI-8226 leukemia
[8] = test system: SK-MEL-2 melanoma
[9] = test system: SK-MEL-28 melanoma
[10] = test system: SW-620 colon

Row | SMILES | GI50 [1] | TGI [1] | GI50 [2] | TGI [2] | GI50 [3] | TGI [3] [µM] | GI50 [4] | TGI [4] [µM] | GI50 [5] | GI50 [6] | TGI [6] | GI50 [7] | TGI [7] | GI50 [8] | TGI [8] | GI50 [9] | TGI [9] | GI50 [10] | TGI [10] [µM] | TGI [5] [µM]
1 | O=C(/C=C/c1ccco1)Nc1ncc(Cc2cc(Cl)ccc2Cl)s1 | 0.0509 µM | > 100 µM | 0.0762 µM | > 100 µM | 0.0359 µM | > 100 | 0.0191 µM | 0.0449 | 0.0364 µM | 0.0327 µM | 0.37 µM | 0.0634 µM | > 100 µM | 0.148 µM | > 100 µM | 2.13 µM | > 100 µM | 0.0417 µM | > 100 | 
2 | O=C(NOCCO)c1ccc2cncn2c1Nc1ccc(I)cc1F | 0.0101 µM and < 0.01 µM | > 10 µM and 20.6 µM | 0.0493 µM and 0.0635 µM | > 10 µM and 47.1 µM | > 10 µM and 26.2 µM | > 100 | 0.00756 µM and < 0.01 µM | > 100 | > 3.69 µM and 16.9 µM | > 10 µM and 29.4 µM | > 100 µM | > 10 µM and 24.6 µM | > 100 µM | 0.00127 µM and < 0.01 µM | 0.00636 µM and < 0.01 µM | 0.003 µM and < 0.01 µM | 0.0717 µM and 0.198 µM | 0.00386 µM and < 0.01 µM | > 100 | > 100
3 | CSc1ccc(-c2cn3ccsc3n2)cc1 | 3.6 µM | > 100 µM | 8.6 µM | > 100 µM | 1.33 µM | > 100 | 12.6 µM | > 100 | 11.1 µM | 26.4 µM | > 100 µM | 9.2 µM | > 100 µM | 4 µM | > 92.9 µM | 27 µM | > 100 µM | 14.6 µM | > 100 | > 89.5
4 | CCOC(=O)c1c(CN2CCCCC2)nc2ccc(Cl)cc2c1-c1ccccc1 | 15.6 µM | 37 µM | 20 µM | 44.2 µM | 18.6 µM | 41.2 | 35.1 µM | > 100 | 19.2 µM | 19.6 µM | 58.2 µM | 20.4 µM | 46.2 µM | 18.9 µM | 40.6 µM | 30.4 µM | 88.3 µM | 18.5 µM | 39.2 | 53
5 | O=C1OC(c2ccccc2)=N/C1=C\c1ccccc1 |  | > 100 µM |  | 51.8 µM and 31.6 µM |  | > 100 |  | > 100 |  |  | > 100 µM and 76.9 µM |  | > 100 µM and 56.8 µM |  | 46.8 µM |  | > 100 µM | > 100 µM and 35.5 µM | > 100 | > 100
6 | CC[C@H](C)[C@H](NC(=O)CN(C)C)C(=O)N(C)[C@H](C[C@@H](OC(C)=O)c1nc(C(=O)NC23C4C5C2C2C3C4C52C(=O)OC)cs1)C(C)C (stereo not given in full) | 0.201 µM | > 33.2 µM | 0.321 µM | > 33.2 µM | 0.134 µM | > 33.2 | 0.0409 µM | 1.07 | 0.11 µM | 11.1 µM | > 33.2 µM | 0.115 µM | > 11.4 µM | 0.838 µM | > 33.2 µM | 1.38 µM | > 33.2 µM | 0.226 µM | > 33.2 | > 10.8
7 | C=C(CN1CCN(c2cc(C(F)(F)F)cc(C(F)(F)F)c2)CC1)c1ccc(C(=O)Nc2ccccc2N)cc1 | 3.67 µM | > 100 µM | 2.34 µM | > 100 µM | 0.839 µM | 21.8 | 1.84 µM | 4.88 | 5.21 µM | 5.82 µM | > 100 µM | 1.65 µM | 4.22 µM | 10.2 µM | > 100 µM | 3.68 µM | 15.9 µM | 6.95 µM | 34.9 | > 100
8 | COC(=O)c1sc(-n2cnc3cc(OC)c(OC)cc32)cc1OCc1ccccc1C(F)(F)F | > 21.8 µM | > 25 µM | > 25 µM | > 25 µM | > 25 µM | > 25 | > 25 µM | > 25 | 17.7 µM | > 25 µM | > 25 µM | > 25 µM | > 25 µM | > 19 µM | > 25 µM | > 25 µM | > 25 µM | > 25 µM | > 25 | > 25
9 | CO[C@H]1C[C@H](O[C@H]2CC[C@@]3(C)[C@H](CC[C@@H]4[C@@H]3CC[C@]3(C)[C@@H](C5=CC(=O)OC5)CC[C@]43O)C2)O[C@H](C)[C@H]1O |  | 0.0161 µM |  | 0.0159 µM |  | 0.134 |  | 0.0974 |  |  | 0.0472 µM |  | 0.0427 µM |  | 0.0478 µM |  | 0.137 µM |  | 0.113 | 0.0197
10 | NS(=O)(=O)c1cccc(Nc2cc(-c3ccc(F)cc3)[nH]n2)c1 | 11.9 µM | > 25 µM | 20.7 µM | > 25 µM | 20.4 µM | > 25 | > 25 µM | > 25 | > 25 µM | > 25 µM | > 25 µM | > 25 µM | > 25 µM | 16.1 µM | > 25 µM | > 25 µM | > 25 µM | > 23.2 µM | > 25 | > 25
11 | COc1cc([C@H]2OC[C@@H]3C(c4cc(OC)c5c(c4)OCO5)OC[C@H]23)cc(OC)c1OC (stereo not given in full) |  | > 100 µM |  | > 100 µM |  | > 100 |  | > 100 |  |  | > 100 µM |  | > 100 µM |  | > 100 µM |  | > 100 µM |  | > 100 | > 100
12 | COc1cc(F)c(F)c(Nc2ccc(I)cc2F)c1NS(=O)(=O)C1(CC(O)CO)CC1 (stereo not given) | 13.5 µM | 31.6 µM | 4.92 µM | 17.6 µM | 16.6 µM | 43.7 | 4.63 µM | 22.3 | 11.5 µM | 18.8 µM | 57.9 µM | 16 µM | 54.6 µM | 4.1 µM | 18.8 µM | 3.02 µM | 13.7 µM | 13.6 µM | > 59.5 | 29.9

Source: PubChem BioAssay (NCI)
